Test results reported in the supplement of paper PMC10307832.

These cell lines were tested with CN1CCN(CC1)C2=CC(=C(C=C2)NC3=NC=C4C(=N3)N(C5=CC=CC=C5C(=O)N4C)C)OC [XMD8-85] + O=C(c1cc(Cc2n[nH]c(=O)c3ccccc23)ccc1F)N1CCN(C(=O)C2CC2)CC1 [Olaparib] (partner 8 µM) (assay: relative viability (nuclei count vs DMSO), 5 days (fraction); higher = more cells survive). Settings: first compound 0.08 µM.
How it was run: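 Values are medians from duplicate plates. Each reflects relative viability, defined as the nuclei count of treated wells over that of vehicle wells. Lung cancer cell lines in 1536-well plates were pin-tool dosed one day after seeding with one drug alone or with a fixed anchor-drug dose plus five library-drug doses (not always all listed) in √10 steps, then fixed, stained and imaged at 4× after 5 days.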
Work on LCLC-97TM1 yielded a relative viability of 0.433. LCLC-103H gave a relative viability of 0.84. In the case of LK-2, the relative viability is reported as 0.802. LOU-NH91 was tested, and the relative viability was 0.944. Work on LU99A yielded a relative viability of 0.247. LXF-289 showed a relative viability of 0.972. With NCI-H23 the relative viability was 0.313. In the case of NCI-H322M, the relative viability is reported as 0.912. NCI-H358 was tested, and the relative viability was 0.508. Work on NCI-H441 yielded a relative viability of 0.405. Work on NCI-H460 yielded a relative viability of 0.284. NCI-H596 showed a relative viability of 0.696. Cell Line NCI-H647 has a relative viability of 0.573. In the case of NCI-H650, the relative viability is reported as 0.403. For NCI-H727, the relative viability was 0.684. NCI-H838 showed a relative viability of 0.796. For NCI-H1355, the relative viability was 0.744. With NCI-H1395 the relative viability was 0.421. In the case of NCI-H1437, the relative viability is reported as 0.611. In the case of NCI-H1651, the relative viability is reported as 0.166. NCI-H1666 showed a relative viability of 0.697. Work on NCI-H1734 yielded a relative viability of 0.672. Cell Line NCI-H1755 has a relative viability of 0.974. Cell Line NCI-H1915 has a relative viability of 0.291. NCI-H1944 showed a relative viability of 0.39. Work on NCI-H1975 yielded a relative viability of 0.774. NCI-H2085 showed a relative viability of 0.729. Cell Line NCI-H2087 has a relative viability of 0.527. With NCI-H2126 the relative viability was 0.958. For NCI-H2170, the relative viability was 0.51. In the case of NCI-H2347, the relative viability is reported as 0.55.

Same assay, conditions: first compound 0.253 µM
Cell Line LCLC-97TM1 has a relative viability of 0.285. For LCLC-103H, the relative viability was 0.759. Work on LK-2 yielded a relative viability of 0.815. In the case of LOU-NH91, the relative viability is reported as 0.922. For LU99A, the relative viability was 0.154. With LXF-289 the relative viability was 1.08. In the case of NCI-H23, the relative viability is reported as 0.308. In the case of NCI-H322M, the relative viability is reported as 0.795. NCI-H358 showed a relative viability of 0.565. Work on NCI-H441 yielded a relative viability of 0.553. NCI-H460 showed a relative viability of 0.448. Work on NCI-H596 yielded a relative viability of 0.602. With NCI-H647 the relative viability was 0.378. For NCI-H650, the relative viability was 0.395. NCI-H727 was tested, and the relative viability was 0.674. Work on NCI-H838 yielded a relative viability of 0.749. NCI-H1355 gave a relative viability of 0.79. Work on NCI-H1395 yielded a relative viability of 0.426. In the case of NCI-H1437, the relative viability is reported as 0.62. NCI-H1651 gave a relative viability of 0.19. NCI-H1666 was tested, and the relative viability was 0.716. NCI-H1734 was tested, and the relative viability was 0.616. NCI-H1755 was tested, and the relative viability was 0.906. NCI-H1793 showed a relative viability of 0.574. NCI-H1915 showed a relative viability of 0.263. NCI-H1944 was tested, and the relative viability was 0.393. Cell Line NCI-H1975 has a relative viability of 0.784. With NCI-H1993 the relative viability was 0.942. In the case of NCI-H2085, the relative viability is reported as 0.743. NCI-H2087 showed a relative viability of 0.688. NCI-H2126 showed a relative viability of 0.897. With NCI-H2170 the relative viability was 0.627. For NCI-H2347, the relative viability was 0.598.

Same assay, conditions: first compound 0.8 µM
LCLC-97TM1 showed a relative viability of 0.359. LCLC-103H showed a relative viability of 0.768. LK-2 showed a relative viability of 0.555. LOU-NH91 showed a relative viability of 0.917. Work on LU99A yielded a relative viability of 0.238. Work on LXF-289 yielded a relative viability of 1.09. NCI-H23 gave a relative viability of 0.302. With NCI-H322M the relative viability was 0.899. Work on NCI-H358 yielded a relative viability of 0.625. With NCI-H441 the relative viability was 0.421. NCI-H460 showed a relative viability of 0.435. In the case of NCI-H596, the relative viability is reported as 0.702. Work on NCI-H647 yielded a relative viability of 0.605. For NCI-H650, the relative viability was 0.375. With NCI-H727 the relative viability was 0.867. NCI-H838 gave a relative viability of 0.898. NCI-H1355 was tested, and the relative viability was 0.714. In the case of NCI-H1395, the relative viability is reported as 0.43. NCI-H1437 showed a relative viability of 0.657. With NCI-H1651 the relative viability was 0.181. With NCI-H1666 the relative viability was 0.742. NCI-H1734 was tested, and the relative viability was 0.629. NCI-H1755 gave a relative viability of 0.862. In the case of NCI-H1793, the relative viability is reported as 0.71. With NCI-H1915 the relative viability was 0.252. In the case of NCI-H1944, the relative viability is reported as 0.44. For NCI-H1975, the relative viability was 0.88. Cell Line NCI-H1993 has a relative viability of 1. NCI-H2085 gave a relative viability of 0.77. With NCI-H2087 the relative viability was 0.7. For NCI-H2126, the relative viability was 0.954. For NCI-H2170, the relative viability was 0.599. NCI-H2347 showed a relative viability of 0.617.

Same assay, conditions: first compound 2.53 µM
For LCLC-97TM1, the relative viability was 0.477. Work on LCLC-103H yielded a relative viability of 0.793. LK-2 showed a relative viability of 0.669. Cell Line LOU-NH91 has a relative viability of 0.92. LU99A gave a relative viability of 0.242. LXF-289 was tested, and the relative viability was 0.94. In the case of NCI-H23, the relative viability is reported as 0.282. Work on NCI-H322M yielded a relative viability of 0.71. With NCI-H358 the relative viability was 0.691. NCI-H441 was tested, and the relative viability was 0.538. Cell Line NCI-H460 has a relative viability of 0.35. NCI-H596 showed a relative viability of 0.49. NCI-H647 was tested, and the relative viability was 0.408. With NCI-H650 the relative viability was 0.387. NCI-H727 gave a relative viability of 0.725. With NCI-H838 the relative viability was 0.778. NCI-H1355 showed a relative viability of 0.657. NCI-H1395 showed a relative viability of 0.474. NCI-H1437 showed a relative viability of 0.611. For NCI-H1651, the relative viability was 0.172. With NCI-H1666 the relative viability was 0.773. Work on NCI-H1755 yielded a relative viability of 0.85. For NCI-H1793, the relative viability was 1.02. For NCI-H1915, the relative viability was 0.222. With NCI-H1944 the relative viability was 0.402. Cell Line NCI-H1975 has a relative viability of 0.711. In the case of NCI-H1993, the relative viability is reported as 1.07. In the case of NCI-H2085, the relative viability is reported as 0.725. For NCI-H2126, the relative viability was 0.889. NCI-H2170 gave a relative viability of 0.601. Work on NCI-H2347 yielded a relative viability of 0.619.

Same assay, conditions: first compound 8 µM
In the case of LCLC-97TM1, the relative viability is reported as 0.201. Cell Line LCLC-103H has a relative viability of 0.665. With LK-2 the relative viability was 0.448. For LOU-NH91, the relative viability was 0.695. LU99A was tested, and the relative viability was 0.218. With LXF-289 the relative viability was 0.915. NCI-H23 showed a relative viability of 0.254. In the case of NCI-H322M, the relative viability is reported as 0.647. Cell Line NCI-H358 has a relative viability of 0.445. NCI-H441 was tested, and the relative viability was 0.371. NCI-H460 showed a relative viability of 0.213. NCI-H596 gave a relative viability of 0.467. For NCI-H647, the relative viability was 0.118. Cell Line NCI-H650 has a relative viability of 0.279. NCI-H727 was tested, and the relative viability was 0.684. Cell Line NCI-H838 has a relative viability of 0.279. Work on NCI-H1355 yielded a relative viability of 0.589. NCI-H1395 was tested, and the relative viability was 0.452. Work on NCI-H1437 yielded a relative viability of 0.439. NCI-H1651 showed a relative viability of 0.16. Work on NCI-H1734 yielded a relative viability of 0.508. For NCI-H1755, the relative viability was 0.899. With NCI-H1793 the relative viability was 0.66. Work on NCI-H1915 yielded a relative viability of 0.185. For NCI-H1944, the relative viability was 0.338. NCI-H1975 was tested, and the relative viability was 0.376. For NCI-H1993, the relative viability was 0.792. With NCI-H2085 the relative viability was 0.699.
